Data: ChEMBL document CHEMBL1201862, “PubChem BioAssay data set” (2004)
The source made the active and inactive calls.

Test system: not listed separately
Experiment: NIH3T3 cell viability loss – ATP luminescence, mouse fibroblasts, counter-screen, dose response (AID 2010);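 further: cells exposed to compound for about 90 hours before reading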
Format: functional, cell-based
Details: not given

Structure (SMILES) | EC50
COc1ccc(NC(=O)CC2C(=O)N(CCc3ccccc3)C(=S)N2Cc2cccnc2)cc1 (stereo not drawn) | > 60 µM (inconclusive)
O=C(c1c[nH]c(C(=O)N2CCN(c3ccccc3F)CC2)c1)c1cccc(Cl)c1Cl | 2.1 µM (active)
O=C(Nc1nc2c(F)cc(F)cc2s1)C1CC1 | > 60 µM (not active)
CCN1CCN(c2nc(-c3ccncc3)nc3ccccc23)CC1 | > 60 µM (not active)
CCC(=O)Nc1nc2ccc([N+](=O)[O-])cc2s1 | > 60 µM (not active)
CCOC(=O)c1c(NC(=O)CN2CCCCC2)sc(CN(C)C)c1-c1ccccc1 | > 30 µM (not active)
OCC1(CCCc2ccccc2)CCN(Cc2cnc(N3CCOCC3)s2)CC1 | > 60 µM (not active)
O=C(N/N=C/c1cc2c(cc1Br)OCO2)c1c[nH]c2ccccc12 | > 60 µM (inconclusive)
COc1ccccc1C(=O)C1CCCN(Cc2ccc(Oc3ncccn3)cc2)C1 (stereo not drawn) | > 60 µM (not active)
CCOc1ccccc1NC(=O)c1cc(-c2ccncc2)nc2c(Cl)cccc12 | 21.2 µM (active)
CSc1cccc(NC(=S)N(Cc2ccc(C)cc2)Cc2ccccn2)c1 | > 60 µM (not active)
O=C(CSc1ncnc2c1nnn2Cc1ccc(F)cc1)NC1CCCCC1 | > 60 µM (not active)
O=C(CN1C2=NCCCN2c2ccccc21)c1ccc([N+](=O)[O-])cc1 | > 60 µM (not active)
Cc1cc(C)c(S(=O)(=O)c2ccccc2C)c(Cl)n1 | > 60 µM (not active)
N=c1c2c(-c3ccccc3)c(-c3ccccc3)n(Cc3ccco3)c2ncn1CCCO | 11.3 µM (active)

Test system: Streptococcus
Experiment: GAS UMAA2166 growth inhibition – luminescence, BacTiterGlo, counter-screen for streptokinase expression inhibitor project, dose response (AID 1915);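 further: potency for reduction of bacterial viability or growth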
Format: functional, organism-based
Details: not given

Structure (SMILES) | EC50
CN(C(=O)CSc1nc(O)c(C#N)c(-c2ccc(C(C)(C)C)cc2)n1)C1CCCCC1 | 20.3 µM (active)
O=C(NNC(=S)NC(=O)c1cccc([N+](=O)[O-])c1)c1ccc(Br)cc1 | 6.56 µM (active)

Biological target: Cytochrome P450 2D6 (Homo sapiens, UniProt P10635);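 further: CYP2D6 member of a cytochrome P450 panel assay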
Sequence (P10635 whole entry): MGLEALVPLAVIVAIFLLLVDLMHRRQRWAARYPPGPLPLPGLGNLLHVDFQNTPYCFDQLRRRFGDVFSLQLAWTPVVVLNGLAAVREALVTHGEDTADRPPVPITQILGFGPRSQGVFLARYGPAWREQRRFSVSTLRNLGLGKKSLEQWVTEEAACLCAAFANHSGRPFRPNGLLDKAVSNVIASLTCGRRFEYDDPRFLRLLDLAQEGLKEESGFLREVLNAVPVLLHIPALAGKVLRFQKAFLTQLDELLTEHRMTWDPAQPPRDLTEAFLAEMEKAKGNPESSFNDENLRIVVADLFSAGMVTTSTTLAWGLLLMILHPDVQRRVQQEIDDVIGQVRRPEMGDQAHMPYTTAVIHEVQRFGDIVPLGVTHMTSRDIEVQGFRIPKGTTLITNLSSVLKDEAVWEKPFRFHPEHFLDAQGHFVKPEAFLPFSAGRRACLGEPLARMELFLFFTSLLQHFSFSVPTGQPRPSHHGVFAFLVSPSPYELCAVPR
Details: not given

Structure (SMILES) | AC50
C[C@H](N)c1cccc(Cl)c1Cl | 31.6 µM (inconclusive)
CN(C)C(=O)c1ccc(-c2nc(N(C)Cc3ccco3)c3ccccc3n2)cc1 | 39.8 µM (inconclusive)
CN(C)c1ccc(-c2ccc3ncnc(N(C)Cc4ccco4)c3c2)cc1 | 25.1 µM (inconclusive)
CCc1nnc(NC(=O)CCC(=O)NCc2ccccc2OC)s1 | 17.8 µM (inconclusive)
Cc1ccccc1Cn1cnc2c(cnn2C(C)(C)C)c1=O | 35.5 µM (inconclusive)
COc1ccc(CC(=O)NCCN2CCCC2)cc1 | 28.2 µM (inconclusive)
O=C(NC1CCCCCC1)c1cccs1 | 12.6 µM (inconclusive)
COc1cccc(Cn2c(=O)c(C)nc3cnc(OCc4ccccc4)nc32)c1 | 20 µM (inconclusive)
O=c1cnc2cnc(OCc3ccccc3)nc2n1Cc1ccc(F)cc1 | 39.8 µM (inconclusive)
NC(=O)c1cccc(N)c1 [3-AMINOBENZAMIDE] | 20 µM (inconclusive)
Cc1oc(-c2ccccc2F)nc1CS(=O)(=O)CC(=O)NCCCN(C)C1CCCCC1 | 15.8 µM (inconclusive)
Cc1cc(C)c[n+](CC(=O)c2cc3ccccc3oc2=O)c1 | 11.2 µM (inconclusive)
CN(Cc1ccco1)c1ccnc(-c2ccccc2C(F)(F)F)n1 | 25.1 µM (inconclusive)
CC(C)c1cc(CN(C)C)c(O)c(C(C)(C)C)c1 | 6.31 µM (inconclusive)

Test system: not listed separately
Experiment: Luminescence Cell-Based Dose Response HTS to Identify Inhibitors of 5'UTR Stem-Loop Driven Prion Protein mRNA Translation in H4 Neuroglioblastoma Cells. [Related pubchem assays: 1827 (Project Summary), 1813 (Primary HTS)]
Format: functional
Details: not given

Structure (SMILES) | EC50
O=C(Nc1ccc([N+](=O)[O-])cc1)C(Cc1ccccc1)N1C(=O)c2cccc3cccc(c23)C1=O (stereo not drawn) | > 120 µM (not active)
CC(C)CN(C(=O)COC(=O)c1c(Cl)ccc(Cl)c1Cl)C1CCS(=O)(=O)C1 (stereo not drawn) | > 120 µM (not active)
CCOC(=O)c1[nH]c(Cc2[nH]c(C(=O)OCC)c(C)c2CCC(=O)OC)c(CCC(=O)OC)c1C | 21.2 µM (active)
COc1ccc(-c2nnc(CSc3nnc(-c4ccncc4)n3C3CCCCC3)o2)cc1OC | > 120 µM (not active)
O=C(Cn1cc(C(F)(F)F)ccc1=O)N/N=C/c1cccc(Cl)c1Cl | > 120 µM (not active)
COc1cc(O)nc(SCc2c(F)c(F)c(F)c(F)c2F)n1 | 13.9 µM (active)
O=C(O)COc1ccccc1/C=N/NC(=O)c1cc2ccccc2cc1O | > 120 µM (not active)
CC(C)n1c2ccccc2c2cc([N+](=O)[O-])ccc21 | > 120 µM (not active)

Test system: not listed separately
Experiment: Trypanosoma cruzi growth suppression in host cells – NIH3T3 host cells, beta-gal luminescence, confirmation (AID 2044);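 further: intracellular parasites grown in NIH/3T3 mouse fibroblasts as host cells; luminescent beta-galactosidase reporter signal from transgenic T. cruzi replicating inside host cells; inhibitors lower the luminescence signal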
Format: functional, cell-based
Details: not given

Structure (SMILES) | EC50
COc1ccc(NC(=O)CC2C(=O)N(CCc3ccccc3)C(=S)N2Cc2cccnc2)cc1 (stereo not drawn) | 2.03 µM (active)
O=C(c1c[nH]c(C(=O)N2CCN(c3ccccc3F)CC2)c1)c1cccc(Cl)c1Cl | 2.69 µM (active)
O=C(Nc1nc2c(F)cc(F)cc2s1)C1CC1 | 0.305 µM (active)
CCN1CCN(c2nc(-c3ccncc3)nc3ccccc23)CC1 | 1.23 µM (active)
CCC(=O)Nc1nc2ccc([N+](=O)[O-])cc2s1 | 0.241 µM (active)
CCOC(=O)c1c(NC(=O)CN2CCCCC2)sc(CN(C)C)c1-c1ccccc1 | 1.11 µM (active)
OCC1(CCCc2ccccc2)CCN(Cc2cnc(N3CCOCC3)s2)CC1 | 1.2 µM (active)
O=C(N/N=C/c1cc2c(cc1Br)OCO2)c1c[nH]c2ccccc12 | 2.52 µM (active)
COc1ccccc1C(=O)C1CCCN(Cc2ccc(Oc3ncccn3)cc2)C1 (stereo not drawn) | 0.178 µM (active)
CCOc1ccccc1NC(=O)c1cc(-c2ccncc2)nc2c(Cl)cccc12 | 1.97 µM (active)
CSc1cccc(NC(=S)N(Cc2ccc(C)cc2)Cc2ccccn2)c1 | 0.483 µM (active)
O=C(CSc1ncnc2c1nnn2Cc1ccc(F)cc1)NC1CCCCC1 | 4.08 µM (active)
O=C(CN1C2=NCCCN2c2ccccc21)c1ccc([N+](=O)[O-])cc1 | 0.436 µM (active)
Cc1cc(C)c(S(=O)(=O)c2ccccc2C)c(Cl)n1 | 2.05 µM (active)
N=c1c2c(-c3ccccc3)c(-c3ccccc3)n(Cc3ccco3)c2ncn1CCCO | 1.33 µM (active)

Test system: Streptococcus sp. 'group A'
Experiment: Streptococcus pyogenes SK(-)GAS viability under kanamycin – luminescence, BacTiterGlo, confirmation, counter-screen for streptokinase expression inhibitor project, dose response (AID 1900)
Format: functional, organism-based
Details: not given

Structure (SMILES) | EC50
O=C(NNC(=S)NC(=O)c1cccc([N+](=O)[O-])c1)c1ccc(Br)cc1 | 1.14 µM (active)

Biological target: T1, Cytochrome P450 1A2 (Homo sapiens, UniProt P05177);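 further: PubChem cytochrome P450 panel assay, CYP1A2 panel member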
T1 sequence (P05177 whole entry): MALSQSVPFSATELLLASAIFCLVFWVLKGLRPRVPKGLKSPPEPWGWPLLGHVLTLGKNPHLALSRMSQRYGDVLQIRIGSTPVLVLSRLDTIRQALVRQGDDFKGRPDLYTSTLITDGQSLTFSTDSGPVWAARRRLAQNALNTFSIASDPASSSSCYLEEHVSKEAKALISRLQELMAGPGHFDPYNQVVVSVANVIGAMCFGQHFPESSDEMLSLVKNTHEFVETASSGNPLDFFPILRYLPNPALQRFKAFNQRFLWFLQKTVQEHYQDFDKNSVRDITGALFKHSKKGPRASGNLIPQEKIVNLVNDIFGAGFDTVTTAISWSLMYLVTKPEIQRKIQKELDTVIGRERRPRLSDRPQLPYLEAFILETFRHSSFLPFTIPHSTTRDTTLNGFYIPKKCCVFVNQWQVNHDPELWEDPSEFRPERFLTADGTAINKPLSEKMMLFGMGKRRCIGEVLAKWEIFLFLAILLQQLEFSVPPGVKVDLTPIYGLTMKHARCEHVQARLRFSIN
Details: not given

Structure (SMILES) | AC50
OC[C@@H]1O[C@H](n2cnc3c(/C=C(\O)c4ccccc4)ncnc32)[C@H](O)[C@@H]1O | 0.501 µM (inconclusive)
COc1ccc(C)cc1NC(=O)CSc1nnc(-c2ccc(OC)c(OC)c2)n1N | 11.2 µM (inconclusive)
CCCCSc1nnc(-c2ccc(C)cc2)n1C | 28.2 µM (inconclusive)
O=C(Nc1ccccc1)N(Cc1ccccc1)CC(O)C(F)(F)F (stereo not drawn) | 17.8 µM (inconclusive)
CCCCN(C)CCCNC(=O)c1ccc(N2CCCC2=O)cc1 | 0.126 µM (inconclusive)
NC(=O)c1cccc(N)c1 [3-AMINOBENZAMIDE] | 39.8 µM (inconclusive)
O=C(NCC1CCCO1)/C(=C\c1ccco1)NC(=O)c1ccccc1 (stereo not drawn) | 14.1 µM (inconclusive)
Cc1cc(C)c(S(=O)(=O)Nc2ccccc2C(F)(F)F)c(C)c1 | 31.6 µM (inconclusive)
Cc1cc(C)c[n+](CC(=O)c2cc3ccccc3oc2=O)c1 | 22.4 µM (inconclusive)

Test system: not listed separately
Experiment: luciferase reporter signal suppression in cells – H4 neuroglioma cells, luminescence, dose response (AID 1990)
Format: functional, cell-based
Details: not given

Structure (SMILES) | EC50
O=C(Nc1ccc([N+](=O)[O-])cc1)C(Cc1ccccc1)N1C(=O)c2cccc3cccc(c23)C1=O (stereo not drawn) | > 120 µM (not active)
CC(C)CN(C(=O)COC(=O)c1c(Cl)ccc(Cl)c1Cl)C1CCS(=O)(=O)C1 (stereo not drawn) | > 120 µM (not active)
CCOC(=O)c1[nH]c(Cc2[nH]c(C(=O)OCC)c(C)c2CCC(=O)OC)c(CCC(=O)OC)c1C | > 120 µM (not active)
COc1ccc(-c2nnc(CSc3nnc(-c4ccncc4)n3C3CCCCC3)o2)cc1OC | 16.3 µM (active)
O=C(Cn1cc(C(F)(F)F)ccc1=O)N/N=C/c1cccc(Cl)c1Cl | > 120 µM (not active)
COc1cc(O)nc(SCc2c(F)c(F)c(F)c(F)c2F)n1 | > 120 µM (not active)
O=C(O)COc1ccccc1/C=N/NC(=O)c1cc2ccccc2cc1O | > 120 µM (not active)
CC(C)n1c2ccccc2c2cc([N+](=O)[O-])ccc21 | 14.8 µM (active)

Test system: not listed separately
Experiment: alpha-synuclein stem-loop luciferase translation blockers – H4 neuroglioma cells, luminescence, confirmation (AID 1988)
Format: functional, cell-based
Details: not given

Structure (SMILES) | EC50
O=C(Nc1ccc([N+](=O)[O-])cc1)C(Cc1ccccc1)N1C(=O)c2cccc3cccc(c23)C1=O (stereo not drawn) | > 120 µM (not active)
CC(C)CN(C(=O)COC(=O)c1c(Cl)ccc(Cl)c1Cl)C1CCS(=O)(=O)C1 (stereo not drawn) | > 120 µM (not active)
CCOC(=O)c1[nH]c(Cc2[nH]c(C(=O)OCC)c(C)c2CCC(=O)OC)c(CCC(=O)OC)c1C | 12.1 µM (active)
COc1ccc(-c2nnc(CSc3nnc(-c4ccncc4)n3C3CCCCC3)o2)cc1OC | 39.4 µM (active)
O=C(Cn1cc(C(F)(F)F)ccc1=O)N/N=C/c1cccc(Cl)c1Cl | > 120 µM (not active)
COc1cc(O)nc(SCc2c(F)c(F)c(F)c(F)c2F)n1 | 66.4 µM (active)
O=C(O)COc1ccccc1/C=N/NC(=O)c1cc2ccccc2cc1O | 18.7 µM (active)
CC(C)n1c2ccccc2c2cc([N+](=O)[O-])ccc21 | 34.3 µM (active)

Biological target: Cytochrome P450 2C19 (Homo sapiens, UniProt P33261)
Sequence (P33261 whole entry): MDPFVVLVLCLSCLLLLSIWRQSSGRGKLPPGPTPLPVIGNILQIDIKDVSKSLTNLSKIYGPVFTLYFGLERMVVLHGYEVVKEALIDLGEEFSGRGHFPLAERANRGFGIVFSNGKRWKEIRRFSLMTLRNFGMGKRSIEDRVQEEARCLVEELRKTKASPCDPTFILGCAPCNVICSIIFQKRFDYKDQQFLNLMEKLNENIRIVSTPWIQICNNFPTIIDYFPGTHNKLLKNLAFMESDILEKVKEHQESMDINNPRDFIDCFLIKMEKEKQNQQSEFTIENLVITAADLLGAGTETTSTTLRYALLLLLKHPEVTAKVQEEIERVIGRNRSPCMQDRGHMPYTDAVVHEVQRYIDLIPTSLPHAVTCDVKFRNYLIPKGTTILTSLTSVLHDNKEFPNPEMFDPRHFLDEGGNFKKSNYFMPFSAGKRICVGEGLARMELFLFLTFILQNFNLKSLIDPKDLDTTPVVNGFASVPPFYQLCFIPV
Experiment: Cytochrome panel assay with activity outcomes. Panel member name: p450-cyp2c19 Compounds with AC50 equal or less than 10 uM are considered active
Format: functional
Details: not given

Structure (SMILES) | AC50
CO[C@@H]1COC(=O)[C@H]2CCCN2C(=O)[C@@H](C)COC(=O)CCC[C@H]1C | inconclusive
Oc1c[n+](CCCC[n+]2cc(O)on2)no1 | inconclusive
Cn1c(=O)c2nc(CSCc3ccccc3)[nH]c2n(C)c1=O | inconclusive
N#CC(C#N)=CNCCN1CCN(C=C(C#N)C#N)CC1 | inconclusive

Same assay, conditions: read-out: AC50

Structure (SMILES) | AC50
Cc1sc2ncn(CC(=O)NCCCC(=O)N3CCN(c4ncccn4)CC3)c(=O)c2c1C | 25.1 µM (inconclusive)
COc1ccc(C)cc1NC(=O)CSc1nnc(-c2ccc(OC)c(OC)c2)n1N | 28.2 µM (inconclusive)
Cc1nc(SCC(=O)Nc2c(C)nn(C)c2C)c2cnn(-c3ccccc3)c2n1 | 28.2 µM (inconclusive)
CN(C)C(=O)c1ccc(-c2nc(N(C)Cc3ccco3)c3ccccc3n2)cc1 | 31.6 µM (inconclusive)
O=C(NC1CCCCCC1)c1cccs1 | 3.98 µM (inconclusive)
O=C(NC(Cc1c[nH]c2ccccc12)c1nnc2n1CCCCC2)c1ccccc1 (stereo not drawn) | 17.8 µM (inconclusive)
COc1ccc(CNc2ncnc3ccc(-c4cccnc4)cc23)c(OC)c1 | 31.6 µM (inconclusive)
O=c1cnc2cnc(OCc3ccccc3)nc2n1Cc1ccc(F)cc1 | 25.1 µM (inconclusive)
Cc1ccc(-n2ncc3c2ncn2nc(-c4ccco4)nc32)c(C)c1 | 17.8 µM (inconclusive)
